Reference: PubChem BioAssay AID248 (DTP/NCI, 2004)
Toxic doses and inconclusive results are not listed. No stated cut-off is given here; in the data, active means T/C of 150% or more; inactive means T/C below 125%.

Test system: L1210 leukemia ip in BDF1 mice, survival T/C
Assay: NCI In Vivo Anticancer Drug Screen. Data for tumor model L1210 Leukemia (intraperitoneal) in B6D2F1 (BDF1) mice
Conditions: endpoint: mean survival time, higher = longer survival
How it was run: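 Ratio derived from survival: compound-dosed mice over vehicle-dosed mice, all bearing a transplantable tumor.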

[1] = dose: 100.0 mg/kg/injection, schedule: Q04DX003 (ip), vehicle: saline with Tween-80
[2] = dose: 200.0 mg/kg/injection, schedule: Q04DX003 (ip), vehicle: saline with Tween-80
[3] = dose: 400.0 mg/kg/injection, schedule: Q04DX003 (ip), vehicle: saline with Tween-80
[4] = dose: 100.0 mg/kg/injection, schedule: Q04DX003 (ip), vehicle: Klucel (hydroxypropylcellulose) (HPC)
[5] = dose: 200.0 mg/kg/injection, schedule: Q04DX003 (ip), vehicle: Klucel (hydroxypropylcellulose) (HPC)
[6] = dose: 100.0 mg/kg/injection, schedule: Q04DX003 (ip), vehicle: saline
[7] = dose: 200.0 mg/kg/injection, schedule: Q04DX003 (ip), vehicle: saline
[8] = dose: 100.0 mg/kg/injection, schedule: Q01DX001 (ip), vehicle: carboxymethylcellulose (CMC)
[9] = dose: 200.0 mg/kg/injection, schedule: Q01DX001 (ip), vehicle: carboxymethylcellulose (CMC)
[10] = dose: 400.0 mg/kg/injection, schedule: Q01DX001 (ip), vehicle: carboxymethylcellulose (CMC)
[11] = dose: 100.0 mg/kg/injection, schedule: Q01DX009 (ip), vehicle: saline with Tween-80
[12] = dose: 400.0 mg/kg/injection, schedule: Q04DX003 (ip), vehicle: Klucel (hydroxypropylcellulose) (HPC)

Measured: T/C

O=c1[nH]c(=S)n2ncnc2[nH]1
inactive: [1] 109 % of control | [2] 102 % of control | [3] 95 % of control

Nc1nc(N)c(-c2ccccc2)c(C(=O)O)n1
inactive: dose: 50.0 mg/kg/injection, schedule: Q01DX001 (ip), vehicle: Klucel (hydroxypropylcellulose) (HPC) 101 % of control | dose: 50.0 mg/kg/injection, schedule: Q04DX003 (ip), vehicle: Klucel (hydroxypropylcellulose) (HPC) 94 % of control | dose: 100.0 mg/kg/injection, schedule: Q01DX001 (ip), vehicle: Klucel (hydroxypropylcellulose) (HPC) 95 % of control | [4] 105 % of control | dose: 200.0 mg/kg/injection, schedule: Q01DX001 (ip), vehicle: Klucel (hydroxypropylcellulose) (HPC) 95 % of control | [5] 105 % of control

CN(C)CCC#N
inactive: dose: 50.0 mg/kg/injection, schedule: Q01DX001 (ip), vehicle: saline 97 % of control | dose: 50.0 mg/kg/injection, schedule: Q01DX009 (ip), vehicle: saline 106 % of control | dose: 100.0 mg/kg/injection, schedule: Q01DX001 (ip), vehicle: saline 97 % of control | dose: 100.0 mg/kg/injection, schedule: Q01DX009 (ip), vehicle: saline 108 % of control | [6] 100 % of control | dose: 200.0 mg/kg/injection, schedule: Q01DX001 (ip), vehicle: saline 100 % of control | dose: 200.0 mg/kg/injection, schedule: Q01DX009 (ip), vehicle: saline 112 % of control | [7] 100 % of control | dose: 400.0 mg/kg/injection, schedule: Q01DX001 (ip), vehicle: saline 97 % of control

Cc1c(C(=O)c2ccccc2)c2ccccc2n1C
inactive: dose: 50.0 mg/kg/injection, schedule: Q01DX001 (ip), vehicle: carboxymethylcellulose (CMC) 96 % of control | [8] 91 % of control | [9] 93 % of control | [10] 93 % of control

O=C(Nc1ccccc1O)c1ccc(Cl)c(Cl)c1
inactive: dose: 100.0 mg/kg/injection, schedule: Q01DX009 (ip), vehicle: Klucel (hydroxypropylcellulose) (HPC) 100 % of control | dose: 200.0 mg/kg/injection, schedule: Q01DX009 (ip), vehicle: Klucel (hydroxypropylcellulose) (HPC) 107 % of control | dose: 400.0 mg/kg/injection, schedule: Q01DX009 (ip), vehicle: Klucel (hydroxypropylcellulose) (HPC) 102 % of control

Cc1ccc(-c2nc3ncnc(N)c3[nH]2)cc1N
inactive: [6] 89 % of control | [7] 94 % of control | dose: 400.0 mg/kg/injection, schedule: Q04DX003 (ip), vehicle: saline 94 % of control

CCOC(=O)n1ccn2cncc2c1=O
inactive: [11] 86 % of control | [1] 95 % of control | [2] 101 % of control | [3] 95 % of control

Cc1ccc(C(C)CC(=O)O)cc1 (centres undefined)
inactive: [8] 101 % of control | [9] 95 % of control | [10] 93 % of control

O=C1OC(c2ccccc2)=N/C1=C/c1ccc(OCc2ccccc2)c(OCc2ccccc2)c1
inactive: dose: 100.0 mg/kg/injection, schedule: Q01DX001 (ip), vehicle: saline with Tween-80 91 % of control | dose: 200.0 mg/kg/injection, schedule: Q01DX001 (ip), vehicle: saline with Tween-80 95 % of control | dose: 400.0 mg/kg/injection, schedule: Q01DX001 (ip), vehicle: saline with Tween-80 86 % of control

CC(O)(C(=O)c1ccccc1)c1ccc(Cl)cc1 (centres undefined)
inactive: [4] 95 % of control | [5] 98 % of control | [12] 101 % of control

O=C(N/N=C\c1ccc(Cl)cc1Cl)c1ccco1
inactive: dose: 100.0 mg/kg/injection, schedule: Q01DX001 (ip), vehicle: other 90 % of control | dose: 200.0 mg/kg/injection, schedule: Q01DX001 (ip), vehicle: other 96 % of control | dose: 400.0 mg/kg/injection, schedule: Q01DX001 (ip), vehicle: other 93 % of control

COc1ccc(-c2c(C)c(C)[nH]c(=O)c2C(=O)O)c(OCc2ccccc2)c1OC
inactive: [11] 100 % of control | dose: 200.0 mg/kg/injection, schedule: Q01DX009 (ip), vehicle: saline with Tween-80 100 % of control | dose: 400.0 mg/kg/injection, schedule: Q01DX009 (ip), vehicle: saline with Tween-80 97 % of control

CCOC(=O)COc1cc(Cl)c(Cl)cc1Cl
inactive: dose: 75.0 mg/kg/injection, schedule: Q01DX009 (ip), vehicle: gum acacia 110 % of control | dose: 100.0 mg/kg/injection, schedule: Q04DX002 (ip), vehicle: gum acacia 100 % of control | dose: 200.0 mg/kg/injection, schedule: Q04DX002 (ip), vehicle: gum acacia 118 % of control | dose: 400.0 mg/kg/injection, schedule: Q04DX002 (ip), vehicle: gum acacia 92 % of control

COc1cc(N(CCCl)CCCl)ccc1C1N(Cc2ccc(N(C)C)cc2)CCCN1Cc1ccc(N(C)C)cc1
inactive: [4] 100 % of control | [5] 107 % of control | [12] 104 % of control
